Reference: US20190270733A1, “Quinoline and Isoquinoline Based HDAC Inhibitors and Methods of Use Thereof” (Reaction Biology Corp., priority 2018, published 2019)

Columns and labels:
[1] = target: T1, Human HDAC8 (Homo sapiens, UniProt Q9BY41); assay: Biochemical HDAC assay, HDAC8; conditions: incubation time 10 min
T1 construct: full-length with a C-terminal His tag; His tag (C); made in house
T1 sequence (Q9BY41 1-377): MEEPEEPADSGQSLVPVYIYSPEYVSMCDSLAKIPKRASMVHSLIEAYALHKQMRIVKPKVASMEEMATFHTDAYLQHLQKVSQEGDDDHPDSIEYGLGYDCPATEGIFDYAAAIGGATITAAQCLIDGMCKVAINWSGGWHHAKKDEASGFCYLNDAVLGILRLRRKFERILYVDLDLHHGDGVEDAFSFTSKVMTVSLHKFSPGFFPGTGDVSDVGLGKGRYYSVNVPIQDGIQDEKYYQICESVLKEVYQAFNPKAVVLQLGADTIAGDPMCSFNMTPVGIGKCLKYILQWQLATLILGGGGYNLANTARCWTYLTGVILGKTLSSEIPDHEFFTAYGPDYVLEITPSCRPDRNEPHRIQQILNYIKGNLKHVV
Description: Human HDAC8 (GenBank Accession No. NM_018486), full-length with a C-terminal His tag, MW=46.4 kDa, was expressed in a baculovirus expression system.
(§1) • I. Compound handling: Testing compounds were dissolved in 100% DMSO to a specific concentration. The serial dilution was conducted by epMotion 5070 in DMSO. • II. HDAC reaction buffer: 50 mM Tris-HCl, pH8.0, 137 mM NaCl, 2.7 mM KCl, and 1 mM MgCl2, Added fresh: 1 mg/ml BSA, 1% DMSO. • III. Substrate: Fluorogenic HDAC General Substrate for HDAC1, 2, 3, 6, 10, 11 ans Sirt1, 2 and 3: Arg-His-Lys-Lys(Ac); HDAC8 only substrate: Arg-His-Lys(Ac)-Lys(Ac); Class2A Substrate (HDAC4, 5, 7 and 9): Acetyl-Lys(trifluoroacetyl)-AMC; Sirt5 substrate: Ac-Lys(succinyl)-AMC. • IV. General Reaction Procedure: (Standard IC50 determination) • a. Delivered 2× enzyme in wells of reaction plate except No Enzyme (No En) control wells. Add buffer in No En wells. • b. Delivered compounds in 100% DMSO into the enzyme mixture by Acoustic technology (Echo550; nanoliter range). Spin down and pre-incubation. • c. Delivered 2× Substrate Mixture (Fluorogenic HDAC Substrate and co-factor (500 μM of Nicotinamide adenine dinucleotide (NAD^+) in all Sirt assay) in all reaction wells to initiate the reaction. Spin and shake. • d. Incubated for 1-2 hr. at 30° C. with seal. • e. Added Developer with Trichostatin A (or TMP269 or NAD^+) to stop the reaction and to generate fluorescent color. • f. Fluorescence was read (excitatory, 360; emission, 460) using the EnVision Multilabel Plate Reader (Perkin Elmer) • g. Endpoint reading was taken for analysis after the development reaches plateau. • V. Data Analysis: The percentages of enzyme activity (relative to DMSO controls) and IC50 values were calculated using the GraphPad Prism 4 program based on a sigmoidal dose-response equation.
(§2) Compounds with indicated doses was tested in the biochemical assays of HDAC1, HDAC2, HDAC3, HDAC4, HDAC5, HDAC6, HDAC7, HDAC8, HDAC9, HDAC10, or HDAC11 enzyme. The incubation time in HDAC1/2 assays are 120 min, and that for other HDACs are 10 min. The curve fit and IC50 values were calculated using the GraphPad Prism 4 program based on a sigmoidal dose-response equation.

[2] = target: T2, Human HDAC1 (Homo sapiens, UniProt Q13547); assay: Biochemical HDAC assay, HDAC1; conditions: incubation time 120 min
T2 construct: full-length with a C-terminal His-tag and a C-terminal FLAG-tag; His-tag (C); FLAG-tag (C); made in house
Description: Human HDAC1 (GenBank Accession No. NM_004964), full-length with a C-terminal His-tag and a C-terminal FLAG-tag, MW=56 kDa, was expressed in a baculovirus expression system.
as §1, §2

[3] = target: T3, Human HDAC2 (Homo sapiens, UniProt Q92769); assay: Biochemical HDAC assay, HDAC2; conditions: incubation time 120 min
T3 construct: full-length with a C-terminal His-tag; His-tag (C); made in house
Description: Human HDAC2 (GenBank Accession No. NM_001527), full-length with a C-terminal His-tag, MW=56 kDa, was expressed in a baculovirus expression system.
as §1, §2

[4] = target: T4, Recombinant human HDAC6 (Homo sapiens, UniProt Q9UBN7); assay: Biochemical HDAC assay, HDAC6; conditions: incubation time 10 min
T4 construct: full-length, MW=180 kDa; GST tag (N); made in house; host or cells: Sf9 insect cells (baculovirus)
T4 sequence (Q9UBN7 1-1215): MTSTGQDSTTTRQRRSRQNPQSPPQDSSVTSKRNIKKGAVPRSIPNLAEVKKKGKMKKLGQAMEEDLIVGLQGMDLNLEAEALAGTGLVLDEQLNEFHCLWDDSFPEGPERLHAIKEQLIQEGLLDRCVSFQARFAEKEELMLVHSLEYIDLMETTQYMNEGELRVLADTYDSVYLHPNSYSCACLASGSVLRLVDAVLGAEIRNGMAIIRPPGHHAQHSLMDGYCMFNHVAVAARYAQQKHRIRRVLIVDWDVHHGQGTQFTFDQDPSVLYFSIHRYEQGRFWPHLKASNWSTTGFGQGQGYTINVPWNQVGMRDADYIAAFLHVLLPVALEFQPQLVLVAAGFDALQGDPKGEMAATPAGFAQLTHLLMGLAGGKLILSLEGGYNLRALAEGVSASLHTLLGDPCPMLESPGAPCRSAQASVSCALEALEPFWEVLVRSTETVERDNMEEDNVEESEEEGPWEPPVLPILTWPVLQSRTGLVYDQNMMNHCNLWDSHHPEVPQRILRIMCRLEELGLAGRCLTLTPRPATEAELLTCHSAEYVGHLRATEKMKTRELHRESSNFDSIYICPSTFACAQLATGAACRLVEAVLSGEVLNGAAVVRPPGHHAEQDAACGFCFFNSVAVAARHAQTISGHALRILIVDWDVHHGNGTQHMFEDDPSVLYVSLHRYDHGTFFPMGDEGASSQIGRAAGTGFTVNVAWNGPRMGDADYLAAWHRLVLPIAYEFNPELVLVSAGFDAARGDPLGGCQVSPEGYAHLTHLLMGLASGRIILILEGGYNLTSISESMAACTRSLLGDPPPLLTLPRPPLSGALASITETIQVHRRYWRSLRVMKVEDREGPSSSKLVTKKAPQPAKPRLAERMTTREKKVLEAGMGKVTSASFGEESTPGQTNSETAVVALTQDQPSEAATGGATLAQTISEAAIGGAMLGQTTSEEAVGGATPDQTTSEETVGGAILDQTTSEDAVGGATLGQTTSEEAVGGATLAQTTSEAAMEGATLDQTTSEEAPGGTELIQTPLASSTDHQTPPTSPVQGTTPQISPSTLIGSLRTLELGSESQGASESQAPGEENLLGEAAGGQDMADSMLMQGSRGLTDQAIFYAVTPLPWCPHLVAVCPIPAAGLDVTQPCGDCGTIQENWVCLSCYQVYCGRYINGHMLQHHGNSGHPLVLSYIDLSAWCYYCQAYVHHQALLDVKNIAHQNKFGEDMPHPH
Description: Recombinant human HDAC6 (GenBank Accession No. BC069243), full-length, MW=180 kDa, was expressed by baculovirus in Sf9 insect cells using an N-terminal GST tag.
as §1, §2

[5] = target: T5, Complex of human HDAC3 and human NCOR2 (Homo sapiens, UniProt O15379); assay: Biochemical HDAC assay, HDAC3; conditions: incubation time 10 min
T5 construct: full-length with a C-terminal His tag; His tag (C); made in house
Description: Complex of human HDAC3 (GenBank Accession No. NM_003883), full-length with a C-terminal His tag, MW=49.7 kDa, and human NCOR2 (amino acid 395-489) (GenBank Accession No. NM_006312), N-terminal GST tag, MW=37.6 kDa, was co-expressed in a baculovirus expression system.
as §1, §2

T5 sequence (O15379 whole entry): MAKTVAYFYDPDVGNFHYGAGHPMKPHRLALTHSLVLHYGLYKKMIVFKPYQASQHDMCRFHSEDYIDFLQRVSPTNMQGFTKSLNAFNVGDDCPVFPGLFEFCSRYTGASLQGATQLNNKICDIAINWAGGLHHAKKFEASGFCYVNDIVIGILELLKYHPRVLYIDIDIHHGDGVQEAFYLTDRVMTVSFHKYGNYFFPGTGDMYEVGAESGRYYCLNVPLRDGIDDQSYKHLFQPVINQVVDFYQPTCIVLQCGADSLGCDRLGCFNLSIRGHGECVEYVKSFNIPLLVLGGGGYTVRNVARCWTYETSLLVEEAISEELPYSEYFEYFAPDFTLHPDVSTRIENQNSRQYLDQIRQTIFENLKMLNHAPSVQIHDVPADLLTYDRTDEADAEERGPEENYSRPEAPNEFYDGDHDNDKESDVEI
T5 sequence (Q9Y618 395-489 partner limits assumed): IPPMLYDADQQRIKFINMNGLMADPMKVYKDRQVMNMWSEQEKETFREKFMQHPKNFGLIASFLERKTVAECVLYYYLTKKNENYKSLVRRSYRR
T3 sequence (Q92769 whole entry): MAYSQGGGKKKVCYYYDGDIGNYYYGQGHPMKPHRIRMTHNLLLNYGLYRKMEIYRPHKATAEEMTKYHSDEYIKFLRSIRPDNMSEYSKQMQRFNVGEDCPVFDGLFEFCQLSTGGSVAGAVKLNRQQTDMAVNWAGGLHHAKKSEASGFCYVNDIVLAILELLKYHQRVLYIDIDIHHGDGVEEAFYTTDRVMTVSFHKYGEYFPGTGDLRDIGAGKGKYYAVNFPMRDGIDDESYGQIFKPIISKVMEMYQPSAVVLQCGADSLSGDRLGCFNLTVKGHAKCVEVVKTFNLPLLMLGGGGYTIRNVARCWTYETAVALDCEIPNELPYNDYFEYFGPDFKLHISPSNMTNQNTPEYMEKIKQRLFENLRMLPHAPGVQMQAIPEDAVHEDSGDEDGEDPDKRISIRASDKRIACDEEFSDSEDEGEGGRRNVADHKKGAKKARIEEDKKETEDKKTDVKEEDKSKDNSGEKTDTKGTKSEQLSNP
T2 sequence (Q13547 whole entry): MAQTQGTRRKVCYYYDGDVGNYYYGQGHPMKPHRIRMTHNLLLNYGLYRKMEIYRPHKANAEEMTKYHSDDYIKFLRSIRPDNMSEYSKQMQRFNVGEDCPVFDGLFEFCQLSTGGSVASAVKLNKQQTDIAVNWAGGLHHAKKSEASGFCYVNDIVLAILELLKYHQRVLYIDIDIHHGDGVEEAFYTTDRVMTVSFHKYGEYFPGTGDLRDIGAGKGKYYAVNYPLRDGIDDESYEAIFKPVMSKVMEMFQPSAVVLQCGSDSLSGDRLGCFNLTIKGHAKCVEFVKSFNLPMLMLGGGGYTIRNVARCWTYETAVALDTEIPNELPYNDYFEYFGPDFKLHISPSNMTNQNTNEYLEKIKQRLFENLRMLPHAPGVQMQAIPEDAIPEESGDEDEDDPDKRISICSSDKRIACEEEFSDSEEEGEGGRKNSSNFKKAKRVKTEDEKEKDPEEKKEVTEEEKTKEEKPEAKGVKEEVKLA

Q: What does the source list for Nc1ccc(-c2cccs2)cc1NC(=O)c1ccc2c(c1)CCNC2=O [Example 1, N-(2-amino-5-(thiophen-2-yl)phenyl)-1-oxo-1,2,3,4-tetrahydroisoquinoline-6-carboxamide]?
A: IC50 [1]: > 10000 nM; IC50 [2]: 1.8 nM; IC50 [3]: 24 nM; IC50 [4]: > 10000 nM; IC50 [5]: > 10000 nM

Q: Which IC50 [1] does the source give for Nc1ccc(-c2cccs2)cc1NC(=O)c1ccc2c(c1)CCN(CC1CCOCC1)C2=O [Example 2, N-(2-amino-5-(thiophen-2-yl)phenyl)-1-oxo-2-((tetrahydro-2H-pyran-4-yl)methyl)-1,2,3,4-tetrahydroisoquinoline-6-carboxamide] here?
A: > 10000 nM

Q: And the IC50 [2]?
A: 1.9 nM

Q: What about the IC50 [3] of the same compound?
A: 23 nM

Q: What about the IC50 [4] of the same compound?
A: > 10000 nM

Q: And the IC50 [5]?
A: > 10000 nM

Q: What does the source list for Nc1ccc(-c2cccs2)cc1NC(=O)c1ccc2c(c1)CCN(C(=O)C1CCOCC1)C2 [Example 3, N-(2-amino-5-(thiophen-2-yl)phenyl)-2-(tetrahydro-2H-pyran-4-carbonyl)-1,2,3,4-tetrahydroisoquinoline-6-carboxamide]?
A: IC50 [1]: > 10000 nM; IC50 [2]: 2.6 nM; IC50 [3]: 25 nM; IC50 [4]: > 10000 nM; IC50 [5]: > 10000 nM

Q: Nc1ccc(-c2cccs2)cc1NC(=O)c1ccc2c(c1)CCN(C(=O)c1cccnc1)C2 [Example 4, N-(2-amino-5-(thiophen-2-yl)phenyl)-2-nicotinoyl-1,2,3,4-tetrahydroisoquinoline-6-carboxamide] was tested. Which IC50 [1] did it give?
A: > 10000 nM

Q: And the IC50 [2]?
A: 3 nM

Q: And the IC50 [3]?
A: 39 nM

Q: And the IC50 [4]?
A: > 10000 nM

Q: What about the IC50 [5] of the same compound?
A: > 10000 nM
